Reference: ChEMBL document CHEMBL1139888, “Fungicidal activities of dihydroferulic acid alkyl ester analogues” (2007)

Key:
Assay type in all cases: functional
[1] = test system: Saccharomyces cerevisiae; test: Growth inhibition of Saccharomyces cerevisiae slt2delta deletion mutant at 1.6 mM relative to control after 48 hrs
[2] = test system: Saccharomyces cerevisiae; test: Growth inhibition of Saccharomyces cerevisiae slt2delta deletion mutant at 3.2 mM relative to control after 48 hrs
[3] = test system: Saccharomyces cerevisiae; test: Antifungal activity against Saccharomyces cerevisiae slt2delta deletion mutant assessed as cell number at 3.2 mM after 48 hrs
[4] = test system: Saccharomyces cerevisiae; test: Antifungal activity against Saccharomyces cerevisiae slt2delta deletion mutant assessed as cell number at 1.6 mM after 48 hrs

## CCCOC(=O)CCc1ccc(O)c(OC)c1 [DIHYDROFERULIC ACID PROPYL ESTER]
[1]
  inhibition at 1600 µM: 75.5%
[2]
  inhibition at 3200 µM: 90.7%
[3]
  Activity: 0.43
[4]
  Activity: 1.13
